Assay results as given in patent US20260109732A1, “LIPID AMINES” (ModernaTX, Inc., priority 2021, published 2026).
Counter-ions that a name gives are not always drawn.

Tests used:
[1] = Diameter and PDI from DLS measurements of mRNA nanoparticles with lipid amines; type: physicochemical
Summary of the method: (§1)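 DLS gave size and PDI, and Ribogreen gave encapsulation, for luciferase- or CFTR-mRNA nanoparticles (N:P 4.93). Particles came from IL1/DSPC/cholesterol/PEG-DMG-2K mixed at pH 4, mRNA-loaded, neutralized with TRIS pH 8.12, and then treated with lipid amine SA50 in pH 7.5 buffer.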

[2] = Encapsulation of mRNA nanoparticles with lipid amines using Ribogreen assay; type: physicochemical
Summary of the method: as §1

[3] = tested on: HeLa cells; experiment: Luciferase Protein Expression Assay in HeLa Cells; type: cell-based, Human; conditions: LNPs encapsulating Luciferase mRNA, 25 ng per well, N=4 wells; 5 h serum-free then 24 h; ONE-Glo
Summary of the method: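 Luminescence output, average RLU across N=4 wells, was measured with ONE-Glo after cell lysis. Before that, HeLa cells were exposed to 25 ng/well luciferase-mRNA nanoparticles (PBS control) for 5 h serum-free, then cultured overnight (24 h) in complete MEM.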

[4] = tested on: HeLa cells; experiment: CFTR Protein Expression Assay in HeLa Cells; type: cell-based, Human; conditions: LNPs encapsulating CFTR mRNA, N=4 wells; 5 h serum-free then 24 h; immunofluorescence vs PBS control
Summary of the method: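 Readout is fold-change in per-cell CFTR immunofluorescence intensity (488 nm, confocal imaging) relative to PBS-treated cells, from 4 replicate wells. LNPs encapsulating CFTR mRNA were applied serum-free for 5 h, followed by 24 h in complete medium before PFA fixation.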

[5] = CFTR mRNA nanoparticle with lipid amine
[6] = Luciferase mRNA nanoparticle modified with lipid amine

| SMILES | Diameter (nm) [1, 5] | PDI [1, 5] | Diameter (nm) [1, 6] | PDI [1, 6] | % Encapsulation (Ribogreen) [2, 5] | % Encapsulation (Ribogreen) [2, 6] | Average Relative Light Units ± Standard Deviation [3] | Average fold-change in CFTR signal intensity per cell compared to buffer control ± standard deviation [4] |
| --- | --- | --- | --- | --- | --- | --- | --- | --- |
| CC[C@H](CC[C@@H](C)[C@H]1CC[C@H]2[C@@H]3CC=C4C[C@@H](OC(=O)N(CCCCNCCC(C)(C)N)CCC(C)(C)N)CC[C@]4(C)[C@H]3CC[C@]12C)C(C)C [SA114, (3S,8S,9S,10R,13R,14S,17R)-17-((2R,5R)-5-ethyl-6-methylheptan-2-yl)-10,13-dimethyl-2,3,4,7,8,9,10,11,12,13,14,15,16,17-tetradecahydro-1H-cyclopenta[a]phenanthren-3-yl (3-amino-3-methylbutyl)(4-((3-amino-3-methylbutyl)amino)butyl)carbamate trihydrochloride] | 85.9 nm | 0.13 | 75 nm | 0.18 | 98.5% | 99.7% | 22594.3 ± 9128.4 Relative Light Units | 6.3 ± 1.3 fold-change |
| CC[C@H](CC[C@@H](C)[C@H]1CC[C@H]2[C@@H]3CC=C4C[C@@H](OC(=O)CCCC(=O)N(CCCN)CCCCNCCCN)CC[C@]4(C)[C@H]3CC[C@]12C)C(C)C [SA117, (3S,8S,9S,10R,13R,14S,17R)-17-((2R,5R)-5-ethyl-6-methylheptan-2-yl)-10,13-dimethyl-2,3,4,7,8,9,10,11,12,13,14,15,16,17-tetradecahydro-1H-cyclopenta[a]phenanthren-3-yl 5-((3-aminopropyl)(4-((3-aminopropyl)amino)butyl)amino)-5-oxopentanoate trihydrochloride] | 94.7 nm | 0.17 | 77 nm | 0.28 | 98.6% | 99.7% | 10134.1 ± 3860.2 Relative Light Units | 4.9 ± 1.2 fold-change |
| CC[C@H](CC[C@@H](C)[C@H]1CC[C@H]2[C@@H]3CC=C4C[C@@H](OC(=O)[C@H](C)N(CCCN)CCCCNCCCN)CC[C@]4(C)[C@H]3CC[C@]12C)C(C)C [SA118, (3S,8S,9S,10R,13R,14S,17R)-17-((2R,5R)-5-ethyl-6-methylheptan-2-yl)-10,13-dimethyl-2,3,4,7,8,9,10,11,12,13,14,15,16,17-tetradecahydro-1H-cyclopenta[a]phenanthren-3-yl N-(3-aminopropyl)-N-(4-((3-aminopropyl)amino)butyl)alaninate tetrahydrochloride] | 89.9 nm | 0.16 | 74 nm | 0.19 | 97.9% | 99.7% | 12261.7 ± 4328.5 Relative Light Units | 9.7 ± 1.2 fold-change |
| CC[C@H](CC[C@@H](C)[C@H]1CC[C@H]2[C@@H]3CC=C4C[C@@H](OC(=O)CN(CCCN)CCCCNCCCN)CC[C@]4(C)[C@H]3CC[C@]12C)C(C)C [SA119, (3S,8S,9S,10R,13R,14S,17R)-17-((2R,5R)-5-ethyl-6-methylheptan-2-yl)-10,13-dimethyl-2,3,4,7,8,9,10,11,12,13,14,15,16,17-tetradecahydro-1H-cyclopenta[a]phenanthren-3-yl N-(3-aminopropyl)-N-(4-((3-aminopropyl)amino)butyl)glycinate tetrahydrochloride] | 88.3 nm | 0.15 | 78 nm | 0.18 | 98.9% | 99.4% | 18979.6 ± 7864.8 Relative Light Units | 5.7 ± 1.0 fold-change |
| CC[C@H](CC[C@@H](C)[C@H]1CC[C@H]2[C@@H]3CC=C4C[C@@H](OC(=O)N(CCCN)CCCCN)CC[C@]4(C)[C@H]3CC[C@]12C)C(C)C [SA120, (3S,8S,9S,10R,13R,14S,17R)-17-((2R,5R)-5-Ethyl-6-methylheptan-2-yl)-10,13-dimethyl-2,3,4,7,8,9,10,11,12,13,14,15,16,17-tetradecahydro-1H-cyclopenta[a]phenanthren-3-yl (4-aminobutyl)(3-aminopropyl)carbamate dihydrochloride] | 83.6 nm | 0.14 | 76 nm | 0.28 | 97.5% | 99.1% | 34695.5 ± 9492.2 Relative Light Units | 16.8 ± 1.1 fold-change |
| CC(C)CCC[C@@H](C)[C@H]1CC[C@H]2[C@@H]3CC=C4C[C@@H](OC(=O)CN(CCCCCCCCN)C(=O)CCCCN)CC[C@]4(C)[C@H]3CC[C@]12C [SA122, (3S,8S,9S,10R,13R,14S,17R)-10,13-Dimethyl-17-((R)-6-methylheptan-2-yl)-2,3,4,7,8,9,10,11,12,13,14,15,16,17-tetradecahydro-1H-cyclopenta[a]phenanthren-3-yl N-(8-aminooctyl)-N-(5-aminopentanoyl)glycinate dihydrochloride] | 83.5 nm | 0.13 | 75 nm | 0.15 | 98.6% | 99.4% | 29605.6 ± 6326.9 Relative Light Units | 14.8 ± 1.1 fold-change |
| CC(C)CCC[C@@H](C)[C@H]1CC[C@H]2[C@@H]3CC=C4C[C@@H](OC(=O)CN(CCCCCCCCN)C(=O)CCCCCN)CC[C@]4(C)[C@H]3CC[C@]12C [SA123, (3S,8S,9S,10R,13R,14S,17R)-10,13-dimethyl-17-((R)-6-methylheptan-2-yl)-2,3,4,7,8,9,10,11,12,13,14,15,16,17-tetradecahydro-1H-cyclopenta[a]phenanthren-3-yl N-(6-aminohexanoyl)-N-(8-aminooctyl)glycinate dihydrochloride] | 83.2 nm | 0.12 | 73 nm | 0.14 | 99.0% | 99.5% | 28520.5 ± 6429.4 Relative Light Units | 14.7 ± 1.0 fold-change |
| CC(C)CCC[C@@H](C)[C@H]1CC[C@H]2[C@@H]3CC=C4C[C@@H](OC(=O)N(CCCCNCCC5(N)CC5)CCC5(N)CC5)CC[C@]4(C)[C@H]3CC[C@]12C [SA124, (3S,8S,9S,10R,13R,14S,17R)-10,13-dimethyl-17-((R)-6-methylheptan-2-yl)-2,3,4,7,8,9,10,11,12,13,14,15,16,17-tetradecahydro-1H-cyclopenta[a]phenanthren-3-yl (2-(1-aminocyclopropyl)ethyl)(4-((2-(1-aminocyclopropyl)ethyl)amino)butyl)carbamate trihydrochloride] | 72.0 nm | 0.10 | 74 nm | 0.14 | 98.3% | 99.8% | 45805.9 ± 5630.6 Relative Light Units | 15.0 ± 1.2 fold-change |
| CC(C)CCC[C@@H](C)[C@H]1CC[C@H]2[C@@H]3CC=C4C[C@@H](OC(=O)CCCC(=O)N(CCCCNCCC(C)N)CCC(C)N)CC[C@]4(C)[C@H]3CC[C@]12C.Cl.Cl.Cl (stereo partly drawn) [SA125, (3S,8S,9S,10R,13R,14S,17R)-10,13-dimethyl-17-((R)-6-methylheptan-2-yl)-2,3,4,7,8,9,10,11,12,13,14,15,16,17-tetradecahydro-1H-cyclopenta[a]phenanthren-3-yl 5-((3-aminobutyl)(4-((3-aminobutyl)amino)butyl)amino)-5-oxopentanoate trihydrochloride] | 75.0 nm | 0.15 | 77 nm | 0.19 | 99.0% | 99.7% | 15625.8 ± 3399.4 Relative Light Units | 14.2 ± 0.9 fold-change |
| CC(C)CCC[C@@H](C)[C@H]1CC[C@H]2[C@@H]3CC=C4C[C@@H](OC(=O)N(CCCCNC(C)CC(C)N)C(C)CC(C)N)CC[C@]4(C)[C@H]3CC[C@]12C.Cl.Cl.Cl (stereo partly drawn) [SA126, (3S,8S,9S,10R,13R,14S,17R)-10,13-dimethyl-17-((R)-6-methylheptan-2-yl)-2,3,4,7,8,9,10,11,12,13,14,15,16,17-tetradecahydro-1H-cyclopenta[a]phenanthren-3-yl (4-aminopentan-2-yl)(4-((4-aminopentan-2-yl)amino)butyl)carbamate trihydrochloride] | 79.3 nm | 0.15 | 75 nm | 0.18 | 99.4% | 99.7% | 31706.7 ± 7386.3 Relative Light Units | 18.2 ± 2.0 fold-change |
